From US20090311344A1, “Dosing Regimen” (priority 2008, published 2009)

Test: Multiple dose study in cancer subjects: treatment-emergent (serious) adverse events
Description: 46 subjects with cancer receiving platinum-based therapies were enrolled into 3 cohorts (N=16 in Cohort 1, 14 in Cohort 2, and 16 in Cohort 3). The subjects received the TPO mimetic peptide compound or placebo within 2 hours prior to the platinum-based chemotherapy on Day 1 of the first 2 cycles with a 21-day interval between each cycle. In addition to the Day 1 administration, gemcitabine administration was permitted on Day 8 of each cycle. Other chemotherapy medications were limited to dosing on Day 1 of each cycle only. Subjects were followed up for a total of 4 cycles of chemotherapy. Chemotherapy regimen continued beyond the first 4 cycles as per standard of care therapy. In the first cohort, 12 subjects received 1.5 μg/kg the TPO mimetic peptide compound and 4 subjects received placebo. In the second cohort 10 subjects received 3.0 μg/kg the TPO mimetic peptide compound and 4 subjects received placebo. In the third cohort, 12 subjects received 2.25 μg/kg the TPO mimetic peptide compound and 4 subjects received placebo. […] Therefore, a third cohort at a lower dose (2.25 μg/kg) was added to collect additional safety, tolerability, PD, and PK data.

## Methoxypolyethyleneglycol20000-propionyl-L-Isoleucyl-L-Glutamyl-Glycyl-L-Prolyl-L-Threonyl-L-Leucyl-L-Arginyl-L-Glutaminyl-L-2-Naphthylalanyl-L-Leucyl-L-Alanyl-L-Alanyl-L-Arginyl-Sarcosyl-Ne-(methoxypolyethyleneglycol20000-propionyl-L-Isoleucyl-L-Glutamyl-Glycyl-L-Prolyl-L-Threonyl-L-Leucyl-L-Arginyl-L-Glutaminyl-L-2-Naphthylalanyl-L-Leucyl-L-Alanyl-L-Alanyl-L-Arginyl-Sarcosyl-)-Lysinamide [TPO mimetic peptide compound]
1.5 ug/kg, n of N = 12
  Adverse event: Abdominal pain: 2
  Adverse event: Acute myocardial infarction: 1
  Adverse event: Alanine aminotransferase increased: 0
  Adverse event: Alopecia: 2
  Adverse event: Anemia: 7
  Adverse event: Anorexia: 5
  Adverse event: Anxiety: 1
  Adverse event: Arthralgia: 0
  Adverse event: Aspartate aminotransferase increased: 0
  Adverse event: Atrial fibrillation: 1
  Adverse event: Azotaemia: 0
  Adverse event: Blood and lymphatic system disorders: 8
  Adverse event: Blood creatinine increased: 1
  Adverse event: C-reactive protein increased: 0
  Adverse event: Cancer pain: 1
  Adverse event: Cardiac disorders: 3
  Adverse event: Cardiac failure: 1
  Adverse event: Chills: 0
  Adverse event: Confusional state: 0
  Adverse event: Constipation: 3
  Adverse event: Cough: 0
  Adverse event: Dehydration: 0
  Adverse event: Dermatitis acneiform: 0
  Adverse event: Diabetes mellitus non-insulin-dependent: 1
  Adverse event: Diarrhea: 2
  Adverse event: Dizziness: 0
  Adverse event: Dry skin: 0
  Adverse event: Dyspepsia: 0
  Adverse event: Dyspnoea: 1
  Adverse event: Ear and labyrinth disorders: 0
  Adverse event: Epistaxis: 0
  Adverse event: Eructation: 0
  Adverse event: Fatigue: 5
  Adverse event: Febrile neutropenia: 0
  Adverse event: Folliculitis: 1
  Adverse event: Gastrointestinal disorders: 7
  Adverse event: General disorders and administration site conditions: 7
  Adverse event: General physical health deterioration: 0
  Adverse event: Haematocrit decreased: 0
  Adverse event: Headache: 1
  Adverse event: Hemorrhoids: 1
  Adverse event: Hepatobiliary disorders: 0
  Adverse event: Hiccups: 1
  Adverse event: Hyperbilirubinaemia: 0
  Adverse event: Hypersensitivity: 0
  Adverse event: Hypertension: 0
  Adverse event: Hypoalbuminaemia: 0
  Adverse event: Hypocalcaemia: 1
  Adverse event: Hypokalaemia: 0
  Adverse event: Hypomagnesaemia: 0
  Adverse event: Hyponatraemia: 0
  Adverse event: Hypophosphataemia: 1
  Adverse event: Immune system disorders: 0
  Adverse event: Insomnia: 0
  Adverse event: Investigations: 3
  Adverse event: Leukocytosis: 0
  Adverse event: Leukopenia: 2
  Adverse event: Lung abscess: 1
  Adverse event: Lymphopenia: 2
  Adverse event: Metabolism and nutrition disorders: 5
  Adverse event: Mucosal inflammation: 0
  Adverse event: Musculoskeletal and connective tissue disorders: 0
  Adverse event: Nausea: 6
  Adverse event: Neoplasms benign, malignant and unspecified (incl cysts and polyps): 1
  Adverse event: Nervous system disorders: 3
  Adverse event: Neuropathy peripheral: 1
  Adverse event: Neutropenia: 3
  Adverse event: Oedema: 0
  Adverse event: Oedema peripheral: 1
  Adverse event: Pain: 3
  Adverse event: Pain in extremity: 0
  Adverse event: Paraesthesia: 0
  Adverse event: Peripheral motor neuropathy: 1
  Adverse event: Peripheral sensory neuropathy: 0
  Adverse event: Platelet count decreased: 1
  Adverse event: Psychiatric disorders: 1
  Adverse event: Pyrexia: 1
  Adverse event: Rash: 2
  Adverse event: Renal and urinary disorders: 0
  Adverse event: Respiratory failure: 1
  Adverse event: Respiratory, thoracic and mediastinal disorders: 2
  Adverse event: Skin and subcutaneous tissue disorders: 4
  Adverse event: Stomatitis: 2
  Adverse event: Tachycardia: 2
  Adverse event: Thrombocythaemia: 1
  Adverse event: Thrombocytopenia: 3
  Adverse event: Tinnitus: 0
  Adverse event: Vascular disorders: 0
  Adverse event: Vomiting: 2
  Adverse event: Weight decreased: 1
  Serious adverse event: Abdominal pain: 1
  Serious adverse event: Acute myocardial infarction: 1
  Serious adverse event: Anorexia: 1
  Serious adverse event: Atrial fibrillation: 1
  Serious adverse event: Blood and lymphatic system disorders: 2
  Serious adverse event: Blood creatinine increased: 0
  Serious adverse event: Cardiac disorders: 2
  Serious adverse event: Cardiac failure: 1
  Serious adverse event: Dehydration: 0
  Serious adverse event: Dyspnoea: 0
  Serious adverse event: Fatigue: 1
  Serious adverse event: Febrile neutropenia: 0
  Serious adverse event: Gastrointestinal disorders: 2
  Serious adverse event: General disorders and administration site conditions: 2
  Serious adverse event: Hyponatraemia: 0
  Serious adverse event: Investigations: 0
  Serious adverse event: Lung abscess: 1
  Serious adverse event: Metabolism and nutrition disorders: 1
  Serious adverse event: Nausea: 1
  Serious adverse event: Neutropenia: 1
  Serious adverse event: Pain: 1
  Serious adverse event: Pyrexia: 1
  Serious adverse event: Respiratory failure: 1
  Serious adverse event: Respiratory, thoracic and mediastinal disorders: 1
  Serious adverse event: Thrombocythaemia: 1
  Serious adverse event: Thrombocytopenia: 0
  Serious adverse event: Vomiting: 0
  Total no. subjects WITH ADVERSE EVENTS: 12
  Total no. subjects WITH SERIOUS ADVERSE EVENTS: 5
2.25 ug/kg, n of N = 12
  Adverse event: Abdominal pain: 1
  Adverse event: Acute myocardial infarction: 0
  Adverse event: Alanine aminotransferase increased: 0
  Adverse event: Alopecia: 3
  Adverse event: Anemia: 2
  Adverse event: Anorexia: 0
  Adverse event: Anxiety: 0
  Adverse event: Arthralgia: 0
  Adverse event: Aspartate aminotransferase increased: 0
  Adverse event: Atrial fibrillation: 0
  Adverse event: Azotaemia: 1
  Adverse event: Blood and lymphatic system disorders: 6
  Adverse event: Blood creatinine increased: 1
  Adverse event: C-reactive protein increased: 0
  Adverse event: Cancer pain: 0
  Adverse event: Cardiac disorders: 0
  Adverse event: Cardiac failure: 0
  Adverse event: Chills: 1
  Adverse event: Confusional state: 1
  Adverse event: Constipation: 2
  Adverse event: Cough: 2
  Adverse event: Dehydration: 1
  Adverse event: Dermatitis acneiform: 0
  Adverse event: Diabetes mellitus non-insulin-dependent: 0
  Adverse event: Diarrhea: 1
  Adverse event: Dizziness: 2
  Adverse event: Dry skin: 0
  Adverse event: Dyspepsia: 0
  Adverse event: Dyspnoea: 1
  Adverse event: Ear and labyrinth disorders: 0
  Adverse event: Epistaxis: 0
  Adverse event: Eructation: 1
  Adverse event: Fatigue: 1
  Adverse event: Febrile neutropenia: 1
  Adverse event: Folliculitis: 0
  Adverse event: Gastrointestinal disorders: 7
  Adverse event: General disorders and administration site conditions: 3
  Adverse event: General physical health deterioration: 1
  Adverse event: Haematocrit decreased: 1
  Adverse event: Headache: 1
  Adverse event: Hemorrhoids: 0
  Adverse event: Hepatobiliary disorders: 1
  Adverse event: Hiccups: 1
  Adverse event: Hyperbilirubinaemia: 1
  Adverse event: Hypersensitivity: 0
  Adverse event: Hypertension: 2
  Adverse event: Hypoalbuminaemia: 1
  Adverse event: Hypocalcaemia: 0
  Adverse event: Hypokalaemia: 1
  Adverse event: Hypomagnesaemia: 1
  Adverse event: Hyponatraemia: 2
  Adverse event: Hypophosphataemia: 0
  Adverse event: Immune system disorders: 0
  Adverse event: Insomnia: 1
  Adverse event: Investigations: 2
  Adverse event: Leukocytosis: 0
  Adverse event: Leukopenia: 3
  Adverse event: Lung abscess: 0
  Adverse event: Lymphopenia: 0
  Adverse event: Metabolism and nutrition disorders: 2
  Adverse event: Mucosal inflammation: 0
  Adverse event: Musculoskeletal and connective tissue disorders: 1
  Adverse event: Nausea: 2
  Adverse event: Neoplasms benign, malignant and unspecified (incl cysts and polyps): 0
  Adverse event: Nervous system disorders: 3
  Adverse event: Neuropathy peripheral: 0
  Adverse event: Neutropenia: 4
  Adverse event: Oedema: 1
  Adverse event: Oedema peripheral: 0
  Adverse event: Pain: 0
  Adverse event: Pain in extremity: 1
  Adverse event: Paraesthesia: 0
  Adverse event: Peripheral motor neuropathy: 0
  Adverse event: Peripheral sensory neuropathy: 0
  Adverse event: Platelet count decreased: 0
  Adverse event: Psychiatric disorders: 2
  Adverse event: Pyrexia: 3
  Adverse event: Rash: 0
  Adverse event: Renal and urinary disorders: 1
  Adverse event: Respiratory failure: 0
  Adverse event: Respiratory, thoracic and mediastinal disorders: 3
  Adverse event: Skin and subcutaneous tissue disorders: 3
  Adverse event: Stomatitis: 0
  Adverse event: Tachycardia: 0
  Adverse event: Thrombocythaemia: 0
  Adverse event: Thrombocytopenia: 0
  Adverse event: Tinnitus: 0
  Adverse event: Vascular disorders: 2
  Adverse event: Vomiting: 6
  Adverse event: Weight decreased: 0
  Serious adverse event: Abdominal pain: 0
  Serious adverse event: Acute myocardial infarction: 0
  Serious adverse event: Anorexia: 0
  Serious adverse event: Atrial fibrillation: 0
  Serious adverse event: Blood and lymphatic system disorders: 1
  Serious adverse event: Blood creatinine increased: 1
  Serious adverse event: Cardiac disorders: 0
  Serious adverse event: Cardiac failure: 0
  Serious adverse event: Dehydration: 1
  Serious adverse event: Dyspnoea: 1
  Serious adverse event: Fatigue: 0
  Serious adverse event: Febrile neutropenia: 1
  Serious adverse event: Gastrointestinal disorders: 1
  Serious adverse event: General disorders and administration site conditions: 0
  Serious adverse event: Hyponatraemia: 2
  Serious adverse event: Investigations: 1
  Serious adverse event: Lung abscess: 0
  Serious adverse event: Metabolism and nutrition disorders: 2
  Serious adverse event: Nausea: 0
  Serious adverse event: Neutropenia: 0
  Serious adverse event: Pain: 0
  Serious adverse event: Pyrexia: 0
  Serious adverse event: Respiratory failure: 0
  Serious adverse event: Respiratory, thoracic and mediastinal disorders: 1
  Serious adverse event: Thrombocythaemia: 0
  Serious adverse event: Thrombocytopenia: 0
  Serious adverse event: Vomiting: 1
  Total no. subjects WITH ADVERSE EVENTS: 10
  Total no. subjects WITH SERIOUS ADVERSE EVENTS: 3
3.0 ug/kg, n of N = 10
  Adverse event: Abdominal pain: 2
  Adverse event: Acute myocardial infarction: 0
  Adverse event: Alanine aminotransferase increased: 1
  Adverse event: Alopecia: 2
  Adverse event: Anemia: 1
  Adverse event: Anorexia: 2
  Adverse event: Anxiety: 0
  Adverse event: Arthralgia: 1
  Adverse event: Aspartate aminotransferase increased: 1
  Adverse event: Atrial fibrillation: 0
  Adverse event: Azotaemia: 0
  Adverse event: Blood and lymphatic system disorders: 3
  Adverse event: Blood creatinine increased: 1
  Adverse event: C-reactive protein increased: 1
  Adverse event: Cancer pain: 0
  Adverse event: Cardiac disorders: 0
  Adverse event: Cardiac failure: 0
  Adverse event: Chills: 0
  Adverse event: Confusional state: 0
  Adverse event: Constipation: 4
  Adverse event: Cough: 0
  Adverse event: Dehydration: 1
  Adverse event: Dermatitis acneiform: 0
  Adverse event: Diabetes mellitus non-insulin-dependent: 0
  Adverse event: Diarrhea: 1
  Adverse event: Dizziness: 0
  Adverse event: Dry skin: 1
  Adverse event: Dyspepsia: 0
  Adverse event: Dyspnoea: 0
  Adverse event: Ear and labyrinth disorders: 1
  Adverse event: Epistaxis: 1
  Adverse event: Eructation: 0
  Adverse event: Fatigue: 4
  Adverse event: Febrile neutropenia: 0
  Adverse event: Folliculitis: 0
  Adverse event: Gastrointestinal disorders: 6
  Adverse event: General disorders and administration site conditions: 6
  Adverse event: General physical health deterioration: 0
  Adverse event: Haematocrit decreased: 1
  Adverse event: Headache: 1
  Adverse event: Hemorrhoids: 0
  Adverse event: Hepatobiliary disorders: 0
  Adverse event: Hiccups: 0
  Adverse event: Hyperbilirubinaemia: 0
  Adverse event: Hypersensitivity: 1
  Adverse event: Hypertension: 0
  Adverse event: Hypoalbuminaemia: 0
  Adverse event: Hypocalcaemia: 0
  Adverse event: Hypokalaemia: 0
  Adverse event: Hypomagnesaemia: 0
  Adverse event: Hyponatraemia: 0
  Adverse event: Hypophosphataemia: 0
  Adverse event: Immune system disorders: 1
  Adverse event: Insomnia: 1
  Adverse event: Investigations: 4
  Adverse event: Leukocytosis: 1
  Adverse event: Leukopenia: 2
  Adverse event: Lung abscess: 0
  Adverse event: Lymphopenia: 0
  Adverse event: Metabolism and nutrition disorders: 3
  Adverse event: Mucosal inflammation: 0
  Adverse event: Musculoskeletal and connective tissue disorders: 2
  Adverse event: Nausea: 2
  Adverse event: Neoplasms benign, malignant and unspecified (incl cysts and polyps): 0
  Adverse event: Nervous system disorders: 2
  Adverse event: Neuropathy peripheral: 0
  Adverse event: Neutropenia: 3
  Adverse event: Oedema: 1
  Adverse event: Oedema peripheral: 0
  Adverse event: Pain: 0
  Adverse event: Pain in extremity: 1
  Adverse event: Paraesthesia: 1
  Adverse event: Peripheral motor neuropathy: 0
  Adverse event: Peripheral sensory neuropathy: 0
  Adverse event: Platelet count decreased: 0
  Adverse event: Psychiatric disorders: 1
  Adverse event: Pyrexia: 2
  Adverse event: Rash: 0
  Adverse event: Renal and urinary disorders: 0
  Adverse event: Respiratory failure: 0
  Adverse event: Respiratory, thoracic and mediastinal disorders: 1
  Adverse event: Skin and subcutaneous tissue disorders: 3
  Adverse event: Stomatitis: 0
  Adverse event: Tachycardia: 0
  Adverse event: Thrombocythaemia: 0
  Adverse event: Thrombocytopenia: 2
  Adverse event: Tinnitus: 1
  Adverse event: Vascular disorders: 0
  Adverse event: Vomiting: 2
  Adverse event: Weight decreased: 0
  Serious adverse event: Abdominal pain: 0
  Serious adverse event: Acute myocardial infarction: 0
  Serious adverse event: Anorexia: 0
  Serious adverse event: Atrial fibrillation: 0
  Serious adverse event: Blood and lymphatic system disorders: 0
  Serious adverse event: Blood creatinine increased: 0
  Serious adverse event: Cardiac disorders: 0
  Serious adverse event: Cardiac failure: 0
  Serious adverse event: Dehydration: 0
  Serious adverse event: Dyspnoea: 0
  Serious adverse event: Fatigue: 0
  Serious adverse event: Febrile neutropenia: 0
  Serious adverse event: Gastrointestinal disorders: 0
  Serious adverse event: General disorders and administration site conditions: 0
  Serious adverse event: Hyponatraemia: 0
  Serious adverse event: Investigations: 0
  Serious adverse event: Lung abscess: 0
  Serious adverse event: Metabolism and nutrition disorders: 0
  Serious adverse event: Nausea: 0
  Serious adverse event: Neutropenia: 0
  Serious adverse event: Pain: 0
  Serious adverse event: Pyrexia: 0
  Serious adverse event: Respiratory failure: 0
  Serious adverse event: Respiratory, thoracic and mediastinal disorders: 0
  Serious adverse event: Thrombocythaemia: 0
  Serious adverse event: Thrombocytopenia: 0
  Serious adverse event: Vomiting: 0
  Total no. subjects WITH ADVERSE EVENTS: 9
  Total no. subjects WITH SERIOUS ADVERSE EVENTS: 0
1.5, 2.25, 3.0 μg/kg
  relation of adverse events to dose: did not appear to be related to increasing doses
human, in vivo
  relatedness of all other SAEs to the compound: unrelated
One subject
  relatedness of the SAE thrombocythemia to the compound: very likely
